Assay results reported in patent US20240381871A1, “5-HALOALKOXY-PYRIMIDINE COMPOUNDS AS HERBICIDES” (SYNGENTA CROP PROTECTION AG, priority 2020, published 2024).

What was measured:
Assay type in all cases: in vivo
Zea mays (ZEAMX) = experiment: Comparative post-emergence test, crop damage; conditions: 336 h, after 14 days, read-out: ZEAMX damage (100=total damage to plant; 0=no damage)
Method: (§1) Seeds of test species were sown in standard soil in pots. After cultivation for 10 days (post-emergence) under controlled conditions in a glasshouse (at 24/16° C., day/night; 14 hours light; 65% humidity), the plants were sprayed with an aqueous spray solution derived from the formulation of the technical active ingredient in 0.6 ml acetone and 45 ml formulation solution containing 10.6% Emulsogen EL (Registry number 61791-12-6), 42.2% N-methyl pyrrolidone, 42.2% dipropylene glycol monomethyl ether (CAS RN 34590-94-8) and 0.2% X-77 (CAS RN 11097-66-8). The test plants were then grown in a glasshouse under controlled conditions in a glasshouse (at 24/16° C., day/night; 14 hours light; 65% humidity) and watered twice daily. After 14 days, the test was evaluated (100=total damage to plant; 0=no damage to plant). • Weeds: Ipomea hederacea (IPOHE) • Crops: Zea mays (ZEAMX)

Ipomea hederacea (IPOHE) = experiment: Comparative post-emergence test, weed control; conditions: Ipomoea hederacea, 336 h, after 14 days, read-out: IPOHE damage (100=total damage to plant; 0=no damage)
Method: as §1

[1] = system: Ipomoea hederacea (IPOHE); experiment: Pre-emergence herbicidal glasshouse test; conditions: rate 250, evaluated after 13 days, the values are:
Method: (§2) Seeds of a variety of test species are sown in standard soil in pots, Amaranthus retoflexus (AMARE), Abutilon theophrasti (ABUTH), Setaria faberi (SETFA), Echinochloa crus-galli (ECHCG) and Ipomoea hederacea (IPOHE). After cultivation for one day (pre-emergence) or after 8 days cultivation (post-emergence) under controlled conditions in a glasshouse (at 24/16° C., day/night; 14 hours light; 65% humidity), the plants are sprayed with an aqueous spray solution derived from the formulation of the technical active ingredient in acetone/water (50:50) solution containing 0.5% Tween 20 (polyoxyethelyene sorbitan monolaurate, CAS RN 9005-64-5). Compounds are applied at 1000 g/ha unless otherwise stated. The test plants are then grown in a glasshouse under controlled conditions in a glasshouse (at 24/16° C., day/night; 14 hours light; 65% humidity) and watered twice daily. After 13 days for pre and post-emergence, the test is evaluated for the percentage damage caused to the plant.

[2] = system: Abutilon theophrasti (ABUTH); experiment: Pre-emergence herbicidal glasshouse test; conditions: rate 250, evaluated after 13 days, the values are:
Method: as §2

[3] = system: Amaranthus retoflexus (AMARE); experiment: Pre-emergence herbicidal glasshouse test; conditions: rate 250, evaluated after 13 days, the values are:
Method: as §2

Setaria faberi (SETFA) [4] = experiment: Pre-emergence herbicidal glasshouse test; conditions: rate 250, evaluated after 13 days, the values are: phytotoxicity score (1-5)
Method: as §2

[5] = system: Ipomoea hederacea (IPOHE); experiment: Post-emergence herbicidal glasshouse test; conditions: rate 250, evaluated after 13 days, the values are: phytotoxicity score (1-5 scale)
Method: as §2

[6] = system: Abutilon theophrasti (ABUTH); experiment: Post-emergence herbicidal glasshouse test; conditions: rate 250, evaluated after 13 days, the values are:
Method: as §2

[7] = system: Amaranthus retoflexus (AMARE); experiment: Post-emergence herbicidal glasshouse test; conditions: rate 250, evaluated after 13 days, the values are: phytotoxicity score (1-5 scale)
Method: as §2

Setaria faberi (SETFA) [8] = experiment: Post-emergence herbicidal glasshouse test; conditions: rate 250, evaluated after 13 days, the values are:
Method: as §2

[9] = system: Echinochloa crus-galli (ECHCG); experiment: Pre-emergence herbicidal glasshouse test; conditions: rate 250, evaluated after 13 days, the values are: phytotoxicity score (1-5)
Method: as §2

[10] = system: Echinochloa crus-galli (ECHCG); experiment: Post-emergence herbicidal glasshouse test; conditions: rate 250, evaluated after 13 days, the values are: phytotoxicity score (1-5 scale)
Method: as §2

Structure (SMILES)	plant injury at 2 g/ha (Zea mays (ZEAMX))	plant injury at 8 g/ha (Zea mays (ZEAMX))	plant injury at 60 g/ha (Zea mays (ZEAMX))	plant injury at 125 g/ha (Zea mays (ZEAMX))	plant injury at 250 g/ha (Zea mays (ZEAMX))	plant injury at 500 g/ha (Zea mays (ZEAMX))	pest or weed control at 2 g/ha (Ipomea hederacea (IPOHE))	pest or weed control at 8 g/ha (Ipomea hederacea (IPOHE))	pest or weed control at 60 g/ha (Ipomea hederacea (IPOHE))	pest or weed control at 125 g/ha (Ipomea hederacea (IPOHE))	pest or weed control at 250 g/ha (Ipomea hederacea (IPOHE))	pest or weed control at 500 g/ha (Ipomea hederacea (IPOHE))	Pre-emergence activity IPOHE (% phytotoxicity) [1]	Pre-emergence activity ABUTH (% phytotoxicity) [2]	Pre-emergence activity AMARE (% phytotoxicity) [3]	Pre-emergence activity SETFA (% phytotoxicity) (Setaria faberi (SETFA) [4])	Post-emergence activity IPOHE (% phytotoxicity) [5]	Post-emergence activity ABUTH (% phytotoxicity) [6]	Post-emergence activity AMARE (% phytotoxicity) [7]	Post-emergence activity SETFA (% phytotoxicity) (Setaria faberi (SETFA) [8])	further results
COc1cnc(Oc2cccc(F)c2-c2cc(C(F)F)no2)nc1	0%	0%	10%	10%	10%	40%	10%	10%	20%	50%	60%	70%	–	–	–	–	–	–	–	–	–
COc1cnc(Oc2cccc(Cl)c2-c2cc(C(F)F)no2)nc1	0%	0%	10%	20%	30%	–	20%	30%	20%	50%	60%	–	–	–	–	–	–	–	–	–	–
COc1cnc(Oc2cccc(Br)c2-c2cc(C(F)F)no2)nc1	0%	0%	0%	10%	30%	–	10%	30%	50%	50%	60%	–	–	–	–	–	–	–	–	–	–
COc1cnc(Oc2cccc(C#N)c2-c2cc(C(F)F)no2)nc1	0%	0%	0%	10%	10%	40%	10%	30%	40%	50%	50%	60%	–	–	–	–	–	–	–	–	–
Fc1cccc(Oc2ncc(OC(F)F)cn2)c1-c1cc(C(F)F)no1 [Compound 1.001, 5-[2-[5-(difluoromethoxy)pyrimidin-2-yl]oxy-6-fluoro-phenyl]-3-(difluoromethyl)isoxazole]	–	0%	20%	10%	20%	40%	30%	20%	70%	80%	90%	100%	5	5	5	5	3	3	4	4	–
Fc1cccc(Oc2ncc(OC(F)(F)F)cn2)c1-c1cc(C(F)F)no1 [Compound 1.002, 3-(difluoromethyl)-5-[2-fluoro-6-[5-(trifluoromethoxy)pyrimidin-2-yl]oxy-phenyl]isoxazole]	–	–	–	–	–	–	–	–	–	–	–	–	4	5	5	5	3	4	4	4	Pre-emergence activity ECHCG (% phytotoxicity) [9]: 4; Post-emergence activity ECHCG (% phytotoxicity) [10]: 4
